Test [1] addresses T1, hTGR5 (Homo sapiens, UniProt Q8TDU6).
T1 construct: expressed in transfected cells; host or cells: HEK293 cells, transiently co-transfected with the pCRE TA-Luciferase reporter
T1 sequence (Q8TDU6 1-330): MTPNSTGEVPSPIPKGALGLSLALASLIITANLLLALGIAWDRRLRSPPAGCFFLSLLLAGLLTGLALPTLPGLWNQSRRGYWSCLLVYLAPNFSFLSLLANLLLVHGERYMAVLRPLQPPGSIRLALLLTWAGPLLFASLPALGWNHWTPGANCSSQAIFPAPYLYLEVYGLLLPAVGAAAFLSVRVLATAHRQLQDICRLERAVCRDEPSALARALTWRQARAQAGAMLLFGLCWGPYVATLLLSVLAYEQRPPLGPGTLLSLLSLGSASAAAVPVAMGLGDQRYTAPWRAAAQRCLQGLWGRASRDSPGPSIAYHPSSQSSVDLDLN
The experiment in a line: TGR5/CRE Luciferase Assay (hTGR5). Type of test: cell-based. Particulars: for EC50: HEK 293 cells co-transfected with pCMV tag4b-TGR5h and pCRE TA-Luciferase, overnight incubation; for hTGR5 % trans: percentage of the 10 μM LCA value, HEK 293 cells transfected with hTGR5. On the procedure: (§1) TGR5/CRE Luciferase Assay
(§2) In the following Tables TGR5 activation by compounds of the invention and subsequent increase in intracellular cAMP were evaluated using a luciferase reporter gene assay. Human embryonic kidney (HEK) 293 cells were transiently co-transfected with pCMV tag4b-TGR5 h (to follow hTGR5 activation) or pCMV AC6-TGR5m (to follow mTGR5 activation) expression plasmids and the pCRE TA-Luciferase reporter plasmid using the JET PEI reagent (Polyplus transfection). Transfected cells were seeded in 96-well plates and incubated overnight with the test compounds at increasing concentrations tested in duplicate. Lithocolic acid (LCA) at 10 μM was used as a positive reference compound. The cAMP-dependent luciferase expression was followed using the BrightGlo reagent according to the manufacturer (Promega) instructions. Luminescence was read with a Mithras plate reader (Berthold) or a Victor3™ V1420 (Perkin Elmer). […] Concentration-response curves were fitted by a nonlinear regression analysis to a 4 parameter logistic equation

The target in test [2] is T2, mTGR5 (Mus musculus, UniProt Q80SS6).
T2 construct: expressed in transfected cells; host or cells: HEK293 cells, transiently co-transfected with the pCRE TA-Luciferase reporter
T2 sequence (Q80SS6 1-329): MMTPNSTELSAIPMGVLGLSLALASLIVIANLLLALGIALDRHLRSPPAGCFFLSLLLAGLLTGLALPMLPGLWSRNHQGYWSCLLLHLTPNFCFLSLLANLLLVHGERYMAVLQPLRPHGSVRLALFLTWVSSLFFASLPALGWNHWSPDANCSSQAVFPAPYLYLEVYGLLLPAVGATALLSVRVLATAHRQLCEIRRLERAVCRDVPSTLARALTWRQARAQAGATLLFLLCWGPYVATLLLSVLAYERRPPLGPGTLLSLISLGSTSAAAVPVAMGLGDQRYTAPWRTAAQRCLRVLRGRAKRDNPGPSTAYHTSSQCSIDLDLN
The experiment in a line: TGR5/CRE Luciferase Assay (mTGR5). Conditions: for EC50: HEK 293 cells co-transfected with pCMV AC6-TGR5m and pCRE TA-Luciferase, overnight incubation; for mTGR5 % trans: percentage of the 10 μM LCA value, HEK 293 cells transfected with mTGR5. Type of test: cell-based. On the procedure:
as §1, §2

SMILES strings stand for the structures.

In test [1], `CC1=C(C(=O)OCc2ccccc2)C(c2ccc(Cl)cc2)CC(=O)N1CC1CCC1` (stereo not shown) [Compound 44, Benzyl 4-(4-chlorophenyl)-1-(cyclobutylmethyl)-6-methyl-2-oxo-3,4-dihydropyridine-5-carboxylate] yielded an EC50 of 300 nM and a hTGR5 % trans of 59%. In test [2], this compound yielded a concentration for a half-maximal effect (EC50) of 400 nM and a mTGR5 % trans of 77%.
For the compound `CC1=C(C(=O)OCc2ccc(OCCCS(=O)(=O)O)cc2)[C@H](c2ccc(Cl)cc2)CC(=O)N1C[C@H]1CCCO1.N` [Example 168, Ammonium,3-[4-[[(4S)-4-(4-chlorophenyl)-6-methyl-2-oxo-1-[[(2R)-tetrahydrofuran-2-yl]methyl]-3,4-dihydropyridine-5-carbonyl]oxymethyl]phenoxy]propane-1-sulfonate], in test [1], the EC50 amounted to 65 nM and the hTGR5 % trans turned out to be 106%. Besides, in test [2], the EC50 was determined as 26 nM and the mTGR5 % trans was 120%.
Consider `COc1ccccc1COC(=O)C1=C(C)N(C[C@@H]2CCCO2)C(=O)C[C@H]1c1ccc(Cl)nc1` [Example 163, (2-Methoxyphenyl)methyl-(4S)-4-(6-chloro-3-pyridyl)-6-methyl-2-oxo-1-[[(2S)-tetra hydrofuran-2-yl]methyl]-3,4-dihydropyridine-5-carboxylate], for which, in test [1], the EC50 is 17 nM and the hTGR5 % trans came out at 105%. The compound further registered a mTGR5 % trans in test [2] of 102%.
Take `COc1ccccc1COC(=O)C1=C(C)N(C[C@H]2CCCO2)C(=O)C[C@H]1c1ccc2nsnc2c1` (racemic) [Example 152, (2-Methoxyphenyl)methyl (4S)-4-(2,1,3-benzothiadiazol-5-yl)-6-methyl-2-oxo-1-[[(2R)-tetrahydrofuran-2-yl]methyl]-3,4-dihydropyridine-5-carboxylate and (2-methoxyphenyl)methyl (4R)-4-(2,1,3-benzothiadiazol-5-yl)-6-methyl-2-oxo-1-[[(2S)-tetrahydrofuran-2-yl]methyl]-3,4-dihydropyridine-5-carboxylate]: in test [1], the EC50 is 30 nM and the hTGR5 % trans came out at 106%. In test [2], this compound yielded an EC50 of 48 nM and a mTGR5 % trans of 66%.
Taken in the same sequence, the figures for `CN1C=C(C(=O)NCc2ccccc2)C(c2ccc(Cl)cc2)CC1=O` (stereo not shown) [Compound 26, N-benzyl-4-(4-chlorophenyl)-1-methyl-2-oxo-3,4-dihydropyridine-5-carboxamide] were 4600 nM, 10%, 1800 nM and 20%.
In test [1], `COc1ccccc1COC(=O)C1=C(C)N(C[C@@H]2CCCO2)C(=O)C[C@@H]1c1ccc(Cl)nc1` [Example 162, (2-M ethoxyphenyl)-methyl-(4R)-4-(6-chloro-3-pyridyl)-6-methyl-2-oxo-1-[[(2S)-tetrahydrofuran-2-yl]methyl]-3,4-dihydropyridine-5-carboxylate] displayed an EC50 of 320 nM and a hTGR5 % trans of 92%. In test [2], this compound came in with a mTGR5 % trans of 86%.
In test [1], `COc1ccccc1COC(=O)C1=C(C)N(C[C@H]2CCCO2)C(=O)C[C@H]1c1ccc(Cl)c(Cl)c1` (racemic) [Example 149, (2-methoxyphenyl)methyl (4S)-4-(3,4-dichlorophenyl)-6-methyl-2-oxo-1-[[(2R)-tetrahydrofuran-2-yl]methyl]-3,4-dihydropyridine-5-carboxylate and (2-methoxyphenyl)methyl (4R)-4-(3,4-dichlorophenyl)-6-methyl-2-oxo-1-[[(2S)-tetrahydrofuran-2-yl]methyl]-3,4-dihydropyridine-5-carboxylate] showed a concentration for a half-maximal effect (EC50) of 20 nM and a hTGR5 % trans of 91%. Also, in test [2], the EC50 came out at 70 nM and the mTGR5 % trans is recorded as 89%.
Taken in the same sequence, the figures for `COCCN1C(=O)CC(c2ccc(Cl)c(Cl)c2)C(C(=O)OCc2ccccc2OC)=C1C` (stereo not shown) [Example 127, (2-methoxyphenyl)methyl 4-(3,4-dichlorophenyl)-1-(2-methoxyethyl)-6-methyl-2-oxo-3,4-dihydropyridine-5-carboxylate] were 100 nM, 89%, 100 nM and 109%.
Taken in the same sequence, the figures for `COc1ccccc1COC(=O)C1=C(C)N(C[C@H]2CCCO2)C(=O)C[C@H]1c1ccc(C(F)(F)F)nc1` (racemic) [Example 150, (2-Methoxyphenyl)methyl (4S)-6-methyl-2-oxo-1-[[(2R)-tetrahydrofuran-2-yl]methyl]-4-[6-(trifluoromethyl)-3-pyridyl]-3,4-dihydropyridine-5-carboxylate and (2-methoxyphenyl)methyl (4R)-6-methyl-2-oxo-1-[[(2S)-tetrahydrofuran-2-yl]methyl]-4-[6-(trifluoromethyl)-3-pyridyl]-3,4-dihydropyridine-5-carboxylate] were 25 nM, 110%, 100 nM and 99%.
Taken in the same sequence, the figures for `COCCN1C(=O)CC(c2ccc(Cl)cc2)C(C(=O)OCc2c(C)cc(C)cc2C)=C1C` (stereo not shown) [Example 101, (2,4,6-trimethylphenyl)methyl 4-(4-chlorophenyl)-1-(2-methoxyethyl)-6-methyl-2-oxo-3,4-dihydropyridine-5-carboxylate] were 200 nM, 75%, 200 nM and 84%.
Consider `CC1=C(C(=O)OCc2ccccc2)C(c2ccc(Cl)cc2)CC(=O)N1CC1CN(C)C1` (stereo not shown) [Compound 47, Benzyl 4-(4-chlorophenyl)-6-methyl-1-[(1-methylazetidin-3-yl)methyl]-2-oxo-3,4-dihydropyridine-5-carboxylate], for which, in test [1], the EC50 was determined as 6600 nM and the hTGR5 % trans is 22%. Besides, in test [2], the mTGR5 % trans is reported as 0%.
Turning to `COCCN1C(=O)CC(c2ccc(Cl)cc2)C(C(=O)OCc2cccc(C(F)(F)F)c2)=C1C` (stereo not shown) [Example 91, [3-(trifluoromethyl)phenyl]methyl 4-(4-chlorophenyl)-1-(2-methoxyethyl)-6-methyl-2-oxo-3,4-dihydropyridine-5-carboxylate], the EC50 in test [1] worked out at 500 nM; in test [2] it was 700 nM.
Turning to `COC(=O)CN1C(=O)CC(c2ccc(Cl)cc2)C(C(=O)OCc2ccccc2OC)=C1C` (stereo not shown) [Compound 73, (2-methoxyphenyl)methyl 4-(4-chlorophenyl)-1-(2-methoxy-2-oxo-ethyl)-6-methyl-2-oxo-3,4-dihydropyridine-5-carboxylate], in test [2], the EC50 was determined as 30 nM and the mTGR5 % trans was found to be 93%.
Consider `COc1ccccc1COC(=O)C1=C(C)N(CCO)C(=O)CC1c1ccc(Cl)cc1` (stereo not shown) [Compound 65, (2-methoxyphenyl)methyl 4-(4-chlorophenyl)-1-(2-hydroxyethyl)-6-methyl-2-oxo-3,4-dihydropyridine-5-carboxylate], for which, in test [2], the EC50 is 300 nM and the mTGR5 % trans stood at 107%.
`CC1=C(C(=O)OCc2ccccc2)C(c2ccc(Cl)cc2)CC(=O)N1CC1CC1` (stereo not shown) [Compound 43, Benzyl 4-(4-chlorophenyl)-1-(cyclopropylmethyl)-6-methyl-2-oxo-3,4-dihydropyridine-5-carboxylate] came in with an EC50 in test [2] of 300 nM.
Turning to `CC1=C(C(=O)OCc2ccccc2)C(c2ccc(Cl)cc2)CC(=O)N1` (stereo not shown) [Compound 12, Benzyl 4-(4-chlorophenyl)-6-methyl-2-oxo-3,4-dihydro-1H-pyridine-5-carboxylate], in test [2], it took 4500 nM to reach a half-maximal effect (EC50) and the mTGR5 % trans came out at 52%.
Consider `COC(=O)CN1C(=O)CC(c2ccc(Cl)cc2)C(C(=O)OCc2ccccc2)=C1C` (stereo not shown) [Compound 57, Benzyl 4-(4-chlorophenyl)-1-(2-methoxy-2-oxo-ethyl)-6-methyl-2-oxo-3,4-dihydropyridine-5-carboxylate], for which, in test [2], a half-maximal effect (EC50) was put at 200 nM.
As to `CC1=C(C(=O)OCc2ccccc2)C(c2cccc(Cl)c2)CC(=O)N1` (stereo not shown) [Compound 11, 4-(3-Chloro-phenyl)-2-methyl-6-oxo-1,4,5,6-tetrahydro-pyridine-3-carboxylic acid benzyl ester], in test [2], the mTGR5 % trans is on record as 10%.

The values are drawn from patent publication US9932309B2, “2-oxo-3,4-dihydropyridine-5-carboxylates and their use” (UNIVERSITE DE LILLE 2 DROIT ET SANTE, priority 2014, dated 2018).
